Reference: US7521458B2, “Spiropiperidylrifamycins for the treatment of mycobacterial infections” (priority 2004, dated 2009)
Like-named read-outs stand apart in the source and are kept apart here.

Tests used:
Format in all cases: cell-based
[1] = system: Mycobacterium tuberculosis 4 strains assayed; conditions: for % Sensitivity: 4 strains; for n° (sensitive strains): of 4 strains
[2] = system: Mycobacterium tuberculosis multiresistant 17 strains assayed; conditions: for % Sensitivity: 17 strains; for n° (sensitive strains): of 17 strains
[3] = system: multiresistant Mycobacterium tuberculosis; assay: microbe, parasite or virus in culture; conditions: for sensitivity (of strains): concentration of about 1 μg/ml, all strains of Example 34; for antimycobacterial activity compared with rifampicin and rifabutin: in vitro, in words; for MIC: Mycobacterium tuberculosis
[4] = concentration analized 0.1 μg/ml
[5] = concentration analized 0.5 μg/ml

Compound | % Sensitivity [1, 4] [%] | n° (sensitive strains) [1, 4] | % Sensitivity [1, 5] [%] | n° (sensitive strains) [1, 5] | % Sensitivity ([1]; concentration analized 1 μg/ml) [%] | n° (sensitive strains) ([1]; concentration analized 1 μg/ml) | % Sensitivity [2, 4] [%] | n° (sensitive strains) [2, 4] | % Sensitivity [2, 5] [%] | n° (sensitive strains) [2, 5] | % Sensitivity ([2]; concentration analized 1 μg/ml) [%] | n° (sensitive strains) ([2]; concentration analized 1 μg/ml) | sensitivity (of strains) [3] | antimycobacterial activity compared with rifampicin and rifabutin [3] | Sensitivity of strains (S/R) ([2]; concentration analized 0.2 μg/ml) | MIC [3] [µg/mL] | Sensitivity of strains (S/R) ([1]; concentration analized 1 μg/ml) | Sensitivity of strains (S/R) ([2]; concentration analized 1 μg/ml)
4-deoxo-3,4-[(2R)-2-spiro(2,6-diphenyl-4-piperidyl)-2,5-dihydro-1H-imidazo]rifamycin S [RFA 3M] | 25 | 1 | 50 | 2 | 100 | 4 | 23 | 4 | 75 | 13 | 94 | 16 | about 95.2% | much superior to rifampicin and to rifabutin | – | – | – | –
4-deoxo-3,4-[(2R)-2-spiro[2,6-bis(4-fluorophenyl)-4-piperidil]-2,5-dihydro-1H-imidazo]rifamycin S [RFA 5M] | 25 | 1 | 50 | 2 | 100 | 4 | 17 | 3 | 82 | 14 | 100 | 17 | about 100% | much superior to rifampicin and to rifabutin | – | – | – | –
NNC(=O)c1ccncc1 [IZ, isoniazid] | – | – | – | – | – | – | – | – | – | – | – | – | – | – | R (R means resistent) | > 256 | – | –
CO[C@H]1/C=C/O[C@@]2(C)Oc3c(C)c(O)c4c(c3C2=O)C2=NC3(CCN(CC(C)C)CC3)NC2=C(NC(=O)/C(C)=C\C=C\[C@H](C)[C@H](O)[C@@H](C)[C@@H](O)[C@@H](C)[C@H](OC(C)=O)[C@@H]1C)C4=O [RFB, rifabutin] | – | – | – | – | – | – | – | – | – | – | – | – | about 14.3% | – | – | – | – | –
CO[C@H]1/C=C/O[C@@]2(C)Oc3c(C)c(O)c4c(O)c(c(/C=N/N5CCN(C)CC5)c(O)c4c3C2=O)NC(=O)/C(C)=C\C=C\[C@H](C)[C@H](O)[C@@H](C)[C@@H](O)[C@@H](C)[C@H](OC(C)=O)[C@@H]1C [RI, rifampicin] | – | – | – | – | – | – | – | – | – | – | – | – | – | – | – | > 256 | R (R means resistent) | R (R means resistent)
